Data on eleven compounds can be found in US20160130278A1 (TAISHO PHARMACEUTICAL CO., LTD, priority 2013, published 2016).

The assay has as its target T1, human type 1 glycine transporter (GlyT1) (Homo sapiens, UniProt P48067).
T1 construct: T98G cells (glioma cells) expressing human type 1 glycine transporter (GlyT1) were used
T1 sequence (P48067 1-706): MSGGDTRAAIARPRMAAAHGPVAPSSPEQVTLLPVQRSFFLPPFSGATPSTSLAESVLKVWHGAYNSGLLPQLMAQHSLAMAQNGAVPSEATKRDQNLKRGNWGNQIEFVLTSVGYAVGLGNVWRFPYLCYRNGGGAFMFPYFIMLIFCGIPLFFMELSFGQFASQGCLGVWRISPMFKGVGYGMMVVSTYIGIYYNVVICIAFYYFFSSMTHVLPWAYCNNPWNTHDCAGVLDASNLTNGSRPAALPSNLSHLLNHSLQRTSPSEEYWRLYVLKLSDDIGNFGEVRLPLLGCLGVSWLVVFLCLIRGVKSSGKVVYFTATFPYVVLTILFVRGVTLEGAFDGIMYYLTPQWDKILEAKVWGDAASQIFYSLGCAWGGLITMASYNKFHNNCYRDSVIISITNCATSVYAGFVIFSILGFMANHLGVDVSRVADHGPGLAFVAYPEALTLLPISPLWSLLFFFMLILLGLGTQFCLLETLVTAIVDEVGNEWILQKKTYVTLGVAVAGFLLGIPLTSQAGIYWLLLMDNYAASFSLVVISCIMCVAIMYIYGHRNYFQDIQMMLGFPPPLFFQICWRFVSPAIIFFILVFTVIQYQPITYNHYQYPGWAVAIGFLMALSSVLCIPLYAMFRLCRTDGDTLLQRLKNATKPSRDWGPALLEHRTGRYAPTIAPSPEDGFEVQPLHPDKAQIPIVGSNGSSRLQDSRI
Briefly: Glycine uptake inhibition experiment ([3H]glycine uptake). The assay is classed as cell-based. Particulars: GlyT1. As to the method:
Glycine Uptake Inhibition Experiment
A glycine uptake experiment was conducted in accordance with the method published in Neuron, 8, 927-935, 1992. In the experiment, T98G cells (glioma cells) expressing human type 1 glycine transporter (GlyT1) were used. The T98G cells were seeded in a 96-well plate at 2.0×10^4 cells/well and cultured overnight in a CO2 incubator. The test substance was dissolved in a 100% DMSO solution and then dissolved in a 10 mM HEPES buffer solution (pH 7.4) containing 150 mM sodium chloride, 1 mM calcium chloride, 5 mM potassium chloride, 1 mM magnesium chloride, 10 mM glucose and 0.2% bovine serum albumin. After removing the cell culture medium, the test substance was subjected to a 10-min pretreatment. Subsequently, the test substance and [^3H] glycine (final concentration: 250 nM) were added to the cells and reaction was performed at room temperature for 15 minutes. After the end of the reaction, the extracellular fluid was aspirated with a manifold to remove excess labeled glycine present outside the cells, and then the cells were lysed with a 0.5 M aqueous sodium hydroxide solution. The glycine content in the cells was determined by measuring the radioactivity in the cell lysate with a liquid scintillation counter. Glycine uptake in the presence of 10 μM ALX5407 was defined as non-specific uptake, and the value calculated by subtracting the amount of the non-specific uptake from the total uptake in the absence of 10 μM ALX5407 was defined as specific uptake. In addition, glycine uptake inhibitory activity (IC50 value) was calculated from an inhibition curve at the concentrations of each test substance ranging from 10^−9 to 10^−5 M. It should be noted that ALX5407 is an HCl salt of N-[(3R)-3-([1,1′-biphenyl]-4-yloxy)-3-(4-fluorophenyl)propyl]-N-methylglycine.

Each structure is given as a SMILES string.

The term IC50 denotes the point on the concentration scale where inhibition reaches its midpoint. A lower IC50 goes with inhibition by little substance. The compound `O=C(NC(c1cccc(-c2cnn(CC(F)(F)F)c2)c1)C1(O)CCC(F)(F)CC1)c1nccc(C(F)(F)F)c1Cl` (single isomer, unassigned) [Compound 135, 3-chloro-N-[(4,4-difluoro-1-hydroxycyclohexyl){3-[1-(2,2,2-trifluoroethyl)-1H-pyrazol-4-yl]phenyl}methyl]-4-(trifluoromethyl)pyridine-2-carboxamide] returned an IC50 of 72 nM.
For `O=C(NC(c1cccc(Cl)c1Cl)C1(O)CCC(F)(F)CC1)c1nccc(C(F)(F)F)c1Cl` (single isomer, unassigned) [Compound 136, 3-chloro-N-[(2,3-dichlorophenyl)(4,4-difluoro-1-hydroxycyclohexyl)methyl]-4-(trifluoromethyl)pyridine-2-carboxamide] the value was 3700 nM.
The value for `O=C(NC(c1cccc(Cl)c1Cl)C1(O)CCC(F)(F)CC1)c1nccc(C(F)(F)F)c1Cl` (single isomer, unassigned) [Compound 137, 3-chloro-N-[(2,3-dichlorophenyl)(4,4-difluoro-1-hydroxycyclohexyl)methyl]-4-(trifluoromethyl)pyridine-2-carboxamide] was 62 nM; that for `CCn1cc(-c2cccc(C(NC(=O)c3cccc(Cl)c3Cl)C3(O)CCC(F)(F)CC3)c2)cn1` (single isomer, unassigned) [Compound 144, 2,3-dichloro-N-{(4,4-difluoro-1-hydroxycyclohexyl)[3-(1-ethyl-1H-pyrazol-4-yl)phenyl]methyl}benzamide] was 530 nM.
Take `CCn1cc(-c2cccc(C(NC(=O)c3cccc(Cl)c3Cl)C3(O)CCC(F)(F)CC3)c2)cn1` (single isomer, unassigned) [Compound 145, 2,3-dichloro-N-{(4,4-difluoro-1-hydroxycyclohexyl)[3-(1-ethyl-1H-pyrazol-4-yl)phenyl]methyl}benzamide]: the IC50 worked out at 670 nM.
For `O=C(NC(c1ccccc1Cl)C1(O)CCC(F)(F)CC1)c1nccc(C(F)(F)F)c1Cl` (single isomer, unassigned) [Compound 147, 3-chloro-N-[(2-chlorophenyl)(4,4-difluoro-1-hydroxycyclohexyl)methyl]-4-(trifluoromethyl)pyridine-2-carboxamide] the value was 110 nM.
In turn, `CCn1cc(-c2cccc(C(NC(=O)c3cccc(C(F)(F)F)c3C)C3(O)CCC(F)(F)CC3)c2)cn1` (single isomer, unassigned) [Compound 149, N-{(4,4-difluoro-1-hydroxycyclohexyl)[3-(1-ethyl-1H-pyrazol-4-yl)phenyl]methyl}-2-methyl-3-(trifluoromethyl)benzamide] returned an IC50 of 2600 nM.
The value for `CCn1cc(-c2cccc(C(NC(=O)c3cccc(C(F)(F)F)c3C)C3(O)CCC(F)(F)CC3)c2)cn1` (single isomer, unassigned) [Compound 150, N-{(4,4-difluoro-1-hydroxycyclohexyl)[3-(1-ethyl-1H-pyrazol-4-yl)phenyl]methyl}-2-methyl-3-(trifluoromethyl)benzamide] was 840 nM; that for `CCn1cc(-c2cccc(C(NC(=O)c3cccc(C)c3Cl)C3(O)CCC(F)(F)CC3)c2)cn1` (single isomer, unassigned) [Compound 151, 2-chloro-N-{(4,4-difluoro-1-hydroxycyclohexyl)[3-(1-ethyl-1H-pyrazol-4-yl)phenyl]methyl}-3-methylbenzamide] was 3300 nM; that for `CCn1cc(-c2cccc(C(NC(=O)c3cccc(C)c3Cl)C3(O)CCC(F)(F)CC3)c2)cn1` (single isomer, unassigned) [Compound 152, 2-chloro-N-{(4,4-difluoro-1-hydroxycyclohexyl)[3-(1-ethyl-1H-pyrazol-4-yl)phenyl]methyl}-3-methylbenzamide] was 1300 nM.
The value for `O=C(NC(c1ccccc1Cl)C1(O)CCC(F)(F)CC1)c1ccnc(C(F)(F)F)c1Cl` (single isomer, unassigned) [Compound 155, 3-chloro-N-[(2-chlorophenyl)(4,4-difluoro-1-hydroxycyclohexyl)methyl]-2-(trifluoromethyl)pyridine-4-carboxamide] was 170 nM.
